Measurements published in ChEMBL document CHEMBL1201862, “PubChem BioAssay data set” (2004).
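Results reflect a 48-hour exposure of cells in 96-well plates to compound at five concentrations. Here, GI50 denotes the concentration required for 50% inhibition of growth.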 Calls of active or inactive are those of the source. Cut-off read from the data, not from the text of the source: active = GI50 up to about 1.1 µM and inactive = higher.

Assays:
Test in all cases: DTP human tumour cell line panel, 48 h
SF-539 = system: SF-539
U-251 = system: U-251
OVCAR-4 = system: OVCAR-4
HT-29 = system: HT-29
SF-295 = system: SF-295
OVCAR-3 = system: OVCAR-3
SW-620 = system: SW-620
SN12C = system: SN12C
RPMI-8226 = system: RPMI-8226
SK-MEL-28 = system: SK-MEL-28
NCI-H23 = system: NCI-H23
SK-OV-3 = system: SK-OV-3
M14 = system: M14
UACC-62 = system: UACC-62
NCI-H522 = system: NCI-H522
Malme-3M = system: Malme-3M
HCT-116 = system: HCT-116

Measured: GI50

Cc1ccc(S(=O)(=O)OC2CS[S+]([O-])CC2OS(=O)(=O)c2ccc(C)cc2)cc1 (configuration not stated)
inactive: SF-539 15.2 µM | U-251 14.8 µM | OVCAR-4 15.6 µM | HT-29 29.6 µM | SF-295 15.7 µM | OVCAR-3 17.4 µM | SW-620 6.55 µM | SN12C 15.2 µM | RPMI-8226 5.74 µM | SK-MEL-28 15.6 µM | NCI-H23 14.7 µM | SK-OV-3 21.7 µM | M14 14.3 µM | UACC-62 15.3 µM | NCI-H522 10.3 µM | Malme-3M 14.6 µM | HCT-116 13.9 µM

C/C(CC(=O)Nc1ccccc1)=N\NC(N)=S
inactive: SF-539 > 100 µM | U-251 > 100 µM | HT-29 > 100 µM | SF-295 > 100 µM | OVCAR-3 > 100 µM | SW-620 > 100 µM | RPMI-8226 > 100 µM | SK-MEL-28 > 100 µM | NCI-H23 > 100 µM | SK-OV-3 > 100 µM | M14 > 100 µM | UACC-62 > 100 µM | NCI-H522 > 100 µM | Malme-3M > 100 µM | HCT-116 > 100 µM

Fc1ccc(C2SCc3nc4ccccc4n32)cc1Cl (configuration not stated)
inactive: SF-539 18.7 µM | U-251 19.4 µM | OVCAR-4 20 µM | HT-29 37.1 µM | SF-295 26.5 µM | SW-620 36.1 µM | SN12C 16.3 µM | SK-MEL-28 24.7 µM | NCI-H23 22.5 µM | SK-OV-3 17.5 µM | UACC-62 10.1 µM | NCI-H522 13.7 µM | Malme-3M 7.8 µM

N#CC(C(=O)C(=O)C(C#N)c1ccc(Br)cc1)c1ccc(Br)cc1 (configuration not stated)
inactive: SF-539 15.5 µM | U-251 11.6 µM | OVCAR-4 12.3 µM | HT-29 8.59 µM | SF-295 13.6 µM | OVCAR-3 9.38 µM | SW-620 14.7 µM | SN12C 14.5 µM | RPMI-8226 4.65 µM | SK-MEL-28 14.6 µM | NCI-H23 3.91 µM | SK-OV-3 15.7 µM | M14 14.2 µM | UACC-62 1.51 µM | Malme-3M 13.6 µM | HCT-116 14.1 µM

COC1CC(n2cc(F)c(N)nc2=O)OC1CO (configuration not stated)
inactive: U-251 > 100 µM | OVCAR-4 > 100 µM | HT-29 > 100 µM | SF-295 > 100 µM | OVCAR-3 > 100 µM | SW-620 > 100 µM | SN12C > 100 µM | RPMI-8226 > 100 µM | SK-MEL-28 > 100 µM | NCI-H23 > 100 µM | SK-OV-3 > 100 µM | M14 > 100 µM | NCI-H522 > 100 µM | Malme-3M > 100 µM

C=C(C(=C)P(=S)(C(C)C)C(C)C)P(=S)(C(C)C)C(C)C
inactive: SF-539 > 100 µM | U-251 > 100 µM | OVCAR-4 > 100 µM | HT-29 > 100 µM | SF-295 > 100 µM | OVCAR-3 > 100 µM | SW-620 > 100 µM | SN12C > 100 µM | RPMI-8226 > 100 µM | SK-MEL-28 > 100 µM | NCI-H23 > 100 µM | SK-OV-3 > 100 µM | M14 > 100 µM | UACC-62 > 100 µM | NCI-H522 > 100 µM | Malme-3M > 100 µM | HCT-116 > 100 µM

Nc1nc2c(c(=O)[n-]1)[n+](CCO)cn2C1OC(CO)C(O)C1O (configuration not stated)
inactive: SF-539 > 100 µM | U-251 > 100 µM | OVCAR-4 > 100 µM | HT-29 > 100 µM | SF-295 > 100 µM | OVCAR-3 > 100 µM | SW-620 > 100 µM | SN12C > 100 µM | RPMI-8226 > 100 µM | SK-MEL-28 > 100 µM | SK-OV-3 > 100 µM | M14 > 100 µM | UACC-62 > 100 µM | NCI-H522 > 100 µM | Malme-3M > 100 µM | HCT-116 > 100 µM

COc1cc2c(cc1OC)C1Cc3cc(OC)c(OC)cc3N1CC2 (configuration not stated)
inactive: U-251 35.4 µM | OVCAR-4 18.9 µM | HT-29 40 µM | SF-295 33.8 µM | OVCAR-3 31.9 µM | SW-620 29.9 µM | SN12C 75.2 µM | RPMI-8226 28.8 µM | SK-MEL-28 32.1 µM | NCI-H23 29.5 µM | SK-OV-3 31.6 µM | M14 20 µM | UACC-62 26.1 µM | NCI-H522 12.2 µM | Malme-3M 20.9 µM | HCT-116 31.1 µM

CSC(C1c2ccccc2N(c2ccc(C)cc2)C2=NC(=O)N(C)C(=O)C21Cl)S(=O)(=O)c1ccc(C)cc1 (configuration not stated)
inactive: SF-539 17.5 µM | U-251 19.3 µM | OVCAR-4 17.9 µM | HT-29 26.2 µM | SF-295 24.2 µM | OVCAR-3 13.2 µM | SW-620 30.6 µM | SN12C 21.7 µM | RPMI-8226 16 µM | SK-MEL-28 21 µM | NCI-H23 22 µM | SK-OV-3 42.1 µM | M14 26.9 µM | UACC-62 21.6 µM | NCI-H522 13.4 µM | Malme-3M 17.2 µM | HCT-116 13 µM

N/N=C(\CCN1CCCC1)CC(c1ccccc1)c1c(O)c2ccccc2oc1=O (configuration not stated)
inactive: SF-539 > 100 µM | U-251 > 100 µM | OVCAR-4 > 100 µM | HT-29 > 100 µM | SF-295 > 100 µM | OVCAR-3 > 100 µM | SW-620 > 100 µM | SN12C > 100 µM | RPMI-8226 > 100 µM | SK-MEL-28 > 100 µM | NCI-H23 > 100 µM | SK-OV-3 > 100 µM | M14 > 100 µM | UACC-62 > 100 µM | NCI-H522 > 100 µM | Malme-3M > 100 µM | HCT-116 > 100 µM

O=C(/C=C/c1ccc(Cl)cc1)c1ccncc1
inactive: SF-539 25.9 µM | U-251 44 µM | OVCAR-4 22.5 µM | HT-29 22.3 µM | SF-295 47.1 µM | OVCAR-3 40.8 µM | SW-620 78 µM | SN12C 51.4 µM | RPMI-8226 89.3 µM | SK-MEL-28 52.6 µM | NCI-H23 > 100 µM | SK-OV-3 > 100 µM | M14 36.1 µM | UACC-62 76 µM | NCI-H522 64.9 µM | Malme-3M > 100 µM | HCT-116 62.2 µM

O=C(CC1(O)C(=O)Nc2c(Cl)ccc(Cl)c21)c1ccc(Cl)cc1 (configuration not stated)
inactive: SF-539 24.8 µM | U-251 29.2 µM | OVCAR-4 25.7 µM | HT-29 28.2 µM | SF-295 34.5 µM | OVCAR-3 23.3 µM | SW-620 55.5 µM | SN12C 18.2 µM | RPMI-8226 21 µM | SK-MEL-28 53.7 µM | NCI-H23 21.6 µM | SK-OV-3 34.8 µM | M14 26.4 µM | UACC-62 23.1 µM | Malme-3M 28.8 µM | HCT-116 29.4 µM

O=C(O)c1c2c(cc3c(=O)c4ccccc4[nH]c13)CCCC2
inactive: SF-539 > 100 µM | U-251 > 10 µM | HT-29 > 100 µM | SF-295 68.5 µM | OVCAR-3 > 100 µM | SW-620 65.2 µM | SN12C > 100 µM | RPMI-8226 > 100 µM | SK-MEL-28 > 100 µM | NCI-H23 > 100 µM | SK-OV-3 > 100 µM | UACC-62 76.7 µM | Malme-3M > 100 µM | HCT-116 82 µM

O=C(N/C(=C\c1ccc(/C=C(\NC(=O)c2ccccc2)c2nc3ccccc3[nH]2)cc1)c1nc2ccccc2[nH]1)c1ccccc1
inactive: SF-539 > 100 µM | U-251 > 100 µM | OVCAR-4 > 100 µM | HT-29 > 100 µM | SF-295 > 100 µM | OVCAR-3 > 100 µM | SW-620 > 100 µM | SN12C > 100 µM | RPMI-8226 > 100 µM | SK-MEL-28 > 100 µM | NCI-H23 > 100 µM | SK-OV-3 > 100 µM | M14 57.9 µM | UACC-62 > 100 µM | NCI-H522 > 100 µM | Malme-3M > 100 µM | HCT-116 > 100 µM

NC(=O)c1csc(C2C=CC(CO)O2)n1 (configuration not stated)
inactive: SF-539 > 100 µM | U-251 > 100 µM | OVCAR-4 > 100 µM | HT-29 > 100 µM | SF-295 > 10 µM | OVCAR-3 > 10 µM | SW-620 > 100 µM | SN12C > 100 µM | RPMI-8226 > 100 µM | SK-MEL-28 > 100 µM | NCI-H23 > 100 µM | SK-OV-3 > 100 µM | M14 > 100 µM | UACC-62 > 100 µM | NCI-H522 > 100 µM | Malme-3M > 100 µM | HCT-116 > 100 µM

COC(=O)C1=C(O)c2cc(-c3ccccc3)c(-c3ccccc3)c(C#N)c2NC(=O)C1
inactive: SF-539 7.33 µM | U-251 7.69 µM | OVCAR-4 27.2 µM | HT-29 5.81 µM | SF-295 3.54 µM | OVCAR-3 77.8 µM | SN12C 47.9 µM | SK-MEL-28 34.5 µM | NCI-H23 > 100 µM | M14 4.99 µM | UACC-62 3.97 µM | HCT-116 1.92 µM

O=S(=O)(N/N=C/c1ccc(Cl)cc1Cl)c1ccccc1
inactive: SF-539 77.1 µM | U-251 91.2 µM | OVCAR-4 > 100 µM | HT-29 80.2 µM | SF-295 > 100 µM | OVCAR-3 91.4 µM | SW-620 78.9 µM | SN12C 27.4 µM | RPMI-8226 84.7 µM | SK-MEL-28 67.8 µM | NCI-H23 69.7 µM | SK-OV-3 91.8 µM | M14 81.1 µM | UACC-62 > 100 µM | Malme-3M > 100 µM | HCT-116 49 µM
